4 compounds from US20240382438A1, “Calcium Channel Blockers and Methods Thereof” (University of Maryland, Eastern Shore, priority 2023, published 2024) can be followed below.

One data set deals with T1, human Cav3.2 (Homo sapiens, UniProt O95180).
T1 construct: host or cells: HEK 293
In words: Whole-cell patch clamp of T-type Ca2+ currents in Cav3.2-stable transfected HEK 293 cells. It counts as cell-based. Conditions: for Effect on whole cell capacitance / Effect on T-type Ca2+ current density: 50 μM; for Effect on T-type Ca2+ current density: vs non-treated cells. The protocol: Certain exemplary embodiments have undergone target identification studies to discover a better officious T-type calcium blocker. The fourteen trifluoromethylated N-benzamide enaminone compounds were synthesized, purified, and structure confirmed using gas chromatography/mass spectroscopy, nuclear magnetic resonance, and elemental analysis. Preliminary in vitro whole cell patch clamp experiments were performed to assess the inhibitory effects of several target analogs on voltage-activated calcium currents in human embryonic kidney (HEK-293) cells. Cav3.2 transfected HEK 293 cells were treated with 50 μM of test compounds and compared to the control group (none pretreated HEK 293 cells).
(§1) ND7/23 cells are derived from the fusion of mouse neuroblastoma and rat dorsal root ganglion cells, which generates a more homogeneous sensory neuron-like cell population. ND7/23 cells were purchased from Sigma-Aldrich (RRID:CVCL_4259). Culture and differentiation of ND7/23 cells was performed as previously described. Briefly, ND7/23 cells were cultured in DMEM/F12 culture media (Millipore, Cat. #DF-041-B), supplemented with 0.5% fetal bovine serum (Invitrogen, Cat. #10437010), db-cAMP (1 mM, Sigma-Aldrich, Cat. #D0627), and nerve growth factor (NGF, 50 ng/mL, Sigma-Aldrich, Ca. #N2513). To remove any proliferating cells, cultures were treated with uridine (20 μM, Sigma-Aldrich, Cat. #U3003) and fluorodeoxyuridine (20 μM, Sigma-Aldrich, Cat. #F0503). Cells were maintained in differentiation media without uridine and fluorodeoxyuridin after induction of differentiation. ND7/23 cells were maintained in differentiation media for ≤6 days. HEK 293 cells that were stabled transfected with the human Cav3.2 and Cav3.3 channel subunits were a gift of Dr. E. Perez-Reyes (University of Virginia). Cav3.2 (or Cav3.3)-stabled transfected HEK 293 cells were culture in DMEM/F12 culture media, supplemented with 5% fetal bovine serum, 50 U/mL penicillin and 50 μg/mL streptomycin. ND7/23 and HEK 293 cells were grown in an incubator at 37° C. in the presence of 5% CO2/95% air humidified atmosphere. Cells passaged less than 20 times were used in this work. Cells were grown in poly-D-lysine-coated glass coverslips for electrophysiological recordings.
Whole cell recordings were performed as previously described. A Nikon Eclipse Ti inverted microscope equipped with Hoffman optics and epifluorescence filters was used to visualize individual cells. Recordings were performed at room temperature (22-24° C.) using glass electrodes made from thin wall borosilicate glass (3-5 MΩ). For electrophysiological recordings of inward Ca^2+ currents, outward K^+ currents were eliminated by equimolar substitution of K^+ with Cs^+ in the pipette solution, whereas inward Na^+ currents were eliminated by the use of TEA ions in the external solution, which are unable to go through voltage-gated Na^+ channels. The pipette solution consisted of (in mM) CsCl (120), MgCl2(2), HEPES (10), EGTA (10), ATP (1), and GTP (0.1), pH 7.4 with CsOH. The composition of the normal external saline used for measurements of Ca^2+ currents was (in mM): tetraethylammonium chloride (TEACl, 145), CaCl2 (10), MgCl2(1), HEPES (10), and glucose (5), pH 7.4 adjusted with CsOH. Ca^2+ currents were generated by applying a 200-500 ms-depolarizing step to various potentials from a holding potential of −100 mV. The external solution used to measure Na^+ currents contained (in mM) NaCl (145), KCl (5.3), CaCl2 (0.5), MgCl2 (5.7), HEPES (13), and glucose (5), pH 7.4 adjusted with KOH. The composition of the CsCl-pipette solution used to record Na^+ currents was the same describe above. Na^+ currents were generated by applying a 20 ms-depolarizing step to various potentials from a holding potential of −100 mV. To assess drug-evoked changes on specific ionic conductances, current amplitudes were expressed as current densities as previously reported. […]
In general terms: Patch clamp records ionic current or voltage across a cell membrane.

The test system of data set [1] is LNCaP prostate cancer cells. In words: XTT cell viability assay. Conditions: 50 μM, 48 hours. In kind it is cell-based. An excerpt: FIG. 15. Effect of RHB121, RHB62, and RHB95 on the cell viability of LNCaP prostate cancer cells. […] Cell viability was expressed as a percent of control LNCaP cells that received no treatment. Control groups were arbitrarily assigned a 100% viability value.
To assess the effect of RHB62, RHB95, and RHB121 on cell viability, the XTT assay was used.

The test system of data set [2] is differentiated ND7/23 cells. Put plainly: Intracellular calcium signals in differentiated ND7/23 cells stimulated with KCl or ionomycin. It counts as cell-based, mouse neuroblastoma and rat dorsal root ganglion cells. The protocol:
FIGS. 14A-C. Effect of RHB121 on the intracellular calcium signals generated in differentiated ND7/23 cells following stimulation with 30 mM extracellular K+ ions or the calcium ionophore ionomycin (10 μM). FIG. 14A. […] FIG. 14B. […] FIG. 14C. Relative changes in the intracellular calcium signal generated in differentiated ND7/23 cells by 30 mM KCl or Ionomycin (10 μM) in control or RHB121-treated cells. Control groups were arbitrarily assigned a 100% intracellular calcium signal.
To assess the effect of RHB121 on intracellular calcium signals, differentiated ND7/23 cells with a high potassium concentration (30 mM KCl) were simulated. The effect of the calcium ionophore Ionomycin, which also can increase intracellular calcium by a different mechanism, independently of T-type Ca^2+ channel activation, was also tested. Stimulation of differentiated ND7/23 with 30 mM KCl external solution caused a small increase in the intracellular calcium signal (FIG. 14A).

Data set [3] has as its system voltage-activated Na^+ channels. In words: Whole-cell recording of Na+ currents in differentiated ND7/23 cells. It counts as cell-based, mouse neuroblastoma and rat dorsal root ganglion cells. As to conditions: 50 μM. The protocol:
as §1
Whole cell recordings were performed as previously described. A Nikon Eclipse Ti inverted microscope equipped with Hoffman optics and epifluorescence filters was used to visualize individual cells. Recordings were performed at room temperature (22-24° C.) using glass electrodes made from thin wall borosilicate glass (3-5 MΩ). For electrophysiological recordings of inward Ca^2+ currents, outward K^+ currents were eliminated by equimolar substitution of K^+ with Cs^+ in the pipette solution, whereas inward Na^+ currents were eliminated by the use of TEA ions in the external solution, which are unable to go through voltage-gated Na^+ channels. […] To assess drug-evoked changes on specific ionic conductances, current amplitudes were expressed as current densities as previously reported. […] Cell capacitance was determined by integrating the transient current evoked by a 10-mV voltage step from a holding potential of −60 mV.
A MULTICLAMP 700A amplifier and PCLAMP software (Axon Instruments) was used to deliver voltage commands and to perform data acquisition and analysis. […] Only cells with stable seals and series resistance (≤10 MΩ) were analyzed. […]

Structures are written as SMILES. Entries after “also recorded” stand apart in the source; their conditions may differ.

T1 sequence (O95180 whole entry): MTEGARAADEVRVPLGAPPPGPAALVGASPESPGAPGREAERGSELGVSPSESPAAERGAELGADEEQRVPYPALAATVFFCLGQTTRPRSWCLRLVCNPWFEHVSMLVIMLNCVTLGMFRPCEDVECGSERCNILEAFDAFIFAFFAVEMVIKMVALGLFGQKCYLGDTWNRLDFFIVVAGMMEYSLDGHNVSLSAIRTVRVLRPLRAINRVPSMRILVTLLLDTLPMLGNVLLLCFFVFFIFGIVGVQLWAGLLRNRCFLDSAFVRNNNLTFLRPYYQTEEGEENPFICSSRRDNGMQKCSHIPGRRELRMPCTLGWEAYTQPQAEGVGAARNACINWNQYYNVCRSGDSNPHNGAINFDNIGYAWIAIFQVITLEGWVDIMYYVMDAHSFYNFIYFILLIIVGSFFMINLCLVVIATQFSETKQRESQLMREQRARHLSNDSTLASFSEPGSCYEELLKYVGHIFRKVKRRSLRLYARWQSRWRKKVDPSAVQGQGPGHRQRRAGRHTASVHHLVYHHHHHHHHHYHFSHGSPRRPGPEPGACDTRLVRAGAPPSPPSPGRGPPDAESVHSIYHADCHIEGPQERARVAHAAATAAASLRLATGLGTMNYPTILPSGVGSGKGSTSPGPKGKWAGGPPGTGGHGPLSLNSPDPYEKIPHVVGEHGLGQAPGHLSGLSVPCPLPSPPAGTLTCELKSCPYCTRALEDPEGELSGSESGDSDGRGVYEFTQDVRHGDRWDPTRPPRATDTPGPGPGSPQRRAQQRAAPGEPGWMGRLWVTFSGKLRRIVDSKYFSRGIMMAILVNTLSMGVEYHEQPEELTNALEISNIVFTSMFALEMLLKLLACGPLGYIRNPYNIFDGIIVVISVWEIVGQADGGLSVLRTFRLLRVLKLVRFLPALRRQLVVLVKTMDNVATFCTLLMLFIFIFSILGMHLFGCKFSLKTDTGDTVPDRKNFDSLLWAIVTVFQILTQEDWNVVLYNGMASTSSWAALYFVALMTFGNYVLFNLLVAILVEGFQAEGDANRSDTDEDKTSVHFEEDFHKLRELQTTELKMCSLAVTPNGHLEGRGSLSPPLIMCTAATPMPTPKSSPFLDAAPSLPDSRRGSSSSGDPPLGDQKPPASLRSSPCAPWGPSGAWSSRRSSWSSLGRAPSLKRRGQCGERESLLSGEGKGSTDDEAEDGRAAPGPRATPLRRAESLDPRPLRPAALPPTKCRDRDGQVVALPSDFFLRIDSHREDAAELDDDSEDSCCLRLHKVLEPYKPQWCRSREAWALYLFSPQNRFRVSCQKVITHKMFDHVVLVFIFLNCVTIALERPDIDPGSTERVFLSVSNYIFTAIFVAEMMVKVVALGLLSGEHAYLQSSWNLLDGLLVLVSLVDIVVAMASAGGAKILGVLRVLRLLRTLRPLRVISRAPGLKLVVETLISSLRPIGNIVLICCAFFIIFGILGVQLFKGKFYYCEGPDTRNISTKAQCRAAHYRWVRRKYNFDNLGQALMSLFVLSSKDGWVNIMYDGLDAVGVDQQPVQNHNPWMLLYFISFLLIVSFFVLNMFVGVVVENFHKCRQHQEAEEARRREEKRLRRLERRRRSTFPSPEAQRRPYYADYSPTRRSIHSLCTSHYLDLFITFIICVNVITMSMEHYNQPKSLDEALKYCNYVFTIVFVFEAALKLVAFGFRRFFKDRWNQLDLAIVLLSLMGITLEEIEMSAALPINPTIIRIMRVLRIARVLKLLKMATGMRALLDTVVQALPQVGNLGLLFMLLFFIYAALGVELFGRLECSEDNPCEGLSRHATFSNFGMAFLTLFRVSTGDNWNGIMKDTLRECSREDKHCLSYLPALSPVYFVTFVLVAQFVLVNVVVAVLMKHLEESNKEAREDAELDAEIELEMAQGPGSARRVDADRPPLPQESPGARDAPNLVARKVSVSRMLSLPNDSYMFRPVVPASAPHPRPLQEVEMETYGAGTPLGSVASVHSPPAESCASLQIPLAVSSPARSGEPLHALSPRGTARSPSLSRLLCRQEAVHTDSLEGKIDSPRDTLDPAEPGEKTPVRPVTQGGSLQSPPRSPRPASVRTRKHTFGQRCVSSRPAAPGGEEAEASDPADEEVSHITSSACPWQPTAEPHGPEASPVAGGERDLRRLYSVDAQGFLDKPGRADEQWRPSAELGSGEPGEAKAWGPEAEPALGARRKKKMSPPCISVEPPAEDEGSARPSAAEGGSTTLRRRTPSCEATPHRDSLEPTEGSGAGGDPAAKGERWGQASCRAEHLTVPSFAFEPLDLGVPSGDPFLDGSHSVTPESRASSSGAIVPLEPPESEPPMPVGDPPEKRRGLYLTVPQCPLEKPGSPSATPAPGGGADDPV

`O=C1C=C(NC(=O)c2cccc(C(F)(F)F)c2)CC(C(F)(F)F)C1` (stereo not shown) [RHB95]: the “Effect on whole cell capacitance” value on human Cav3.2 (HEK 293-Cav3.2 cells) is “no significant changes; also recorded: no effect on cell capacitance”. The “Effect on T-type Ca2+ current density” value is recorded as “significant reduction” on human Cav3.2 (HEK 293-Cav3.2 cells) and “No inhibitory effect” at human Cav3.2 (HEK 293-Cav3.2 cells, listed as RHB-95). The “Effect on cell viability (XTT assay)” value in data set [1] is recorded as “do not affect the cell viability; also recorded: no effect on the cell viability”.
In the case of `Cc1cc(C)cc(C(=O)NC2=CC(=O)CC(C(F)(F)F)C2)c1` (stereo not shown) [RHB62], at human Cav3.2 (HEK 293-Cav3.2 cells), the “Effect on whole cell capacitance” value is reported as “no significant changes; also recorded: no effect on cell capacitance” and the “Effect on T-type Ca2+ current density” value is listed as “significant reduction; also recorded: reduction in the Ca^+2 current, with lower potency than RHB-77”. Further, in data set [1], the “Effect on cell viability (XTT assay)” value is “do not affect the cell viability; also recorded: no effect on the cell viability”.
On to `C[C@H](CCC(=O)O)C[C@H](C)C[C@H](C)C(=O)/C=C(\O)[C@H](C)C[C@H](C)C/C=C/[C@@H](C)[C@@H](O)[C@@H](C)[C@@H](O)C[C@@H]1CC[C@@](C)([C@H]2CC[C@@](C)([C@@H](C)O)O2)O1` [Ionomycin, reference compound], for which the “Change in intracellular calcium signal on stimulation” value in data set [2] (10 μM, control cells) is on record as “significant increase”.
Consider `O=C1C=C(NC(=O)c2cccc(OC(F)(F)F)c2)CC(C(F)(F)F)C1` (stereo not shown) [RHB121, N-(3-oxo-5-(trifluoromethyl)cyclohex-1-en-1-yl)-3-(trifluoromethoxy)benzamide], for which the “Effect on Na+ current density” value in data set [3] is “does not affect; also recorded: no effect on the Na^+ current densities”. Further, on human Cav3.2 (10 μM), the “Effect on activation time constant (τ)” value is given as “does not alter; also recorded: no effect” and the “Shift of the steady-state inactivation curve” value is on record as “leftward shift”. Also, on human Cav3.2 (HEK 293-Cav3.2 cells), the “Effect on whole cell capacitance” value is “no effect on cell capacitance”, the “Effect on T-type Ca2+ current density” value was “significant reduction” and the “Concentration dependence of the inhibition of T-type Ca2+ currents” value was “concentration-dependent”. Also, at human Cav3.2 (HEK 293-Cav3.2 cells, listed as RHB 121), the “Effect on whole cell capacitance” value is “no significant changes”. Also, on human Cav3.2 (HEK293, 50 μM, Cav3.2 transfected HEK 293 cells, read-out: Inhibition of calcium currents on T-type calcium channels), the inhibition – broadly, how much of the control response was suppressed – at 50 µM was ~100%. Moreover, in data set [2] (50 μM pre-treatment), the “Effect on intracellular calcium signal evoked with 30 mM KCl” value is reported as “complete inhibition; also recorded: significant reduction” and the “Effect on intracellular calcium signal evoked with Ionomycin (10 μM)” value is recorded as “still evoked a significant response; also recorded: significant reduction”. The “Effect on cell viability (XTT assay)” value in data set [1] is recorded as “do not affect the cell viability; also recorded: no effect on the cell viability”.
